Laboratory results as given in patent US10308595B2, “Albicidin derivatives, their use and synthesis” (priority 2013, dated 2019).

Legend:
Assay type in all cases: cell-based
[1] = test system: Escherichia coli K12 (W1130); assay: Test agar plates (disc diffusion), diameter of inhibition area; conditions: 10 μl per test disc, "—" no activity detected
Description: (§1) The dry compounds were dissolved in DMSO (1 mg/ml) and the so obtained stock solution was diluted with sterilized Millipore water 1:10 and 1:100
(§2) 20 μl of cryo stock of each strain were inoculated to 20 ml of Mueller-Hinton medium and grown overnight at 30° C. or 37° C. on a vertical shaker with 160 rpm. The inoculum for the test was adjusted by the 0.5 McFarland Standard (OD625 from 0.08 to 0.1)
Escherichia coli K12 (W1130) [gram. Neg.] Medium: MHB/37° C.
(§3) Every plate is prepared by pouring 10 ml Mueller-Hinton agar into standard petri dishes (diam 94 mm). The so obtained Mueller-Hinton plates are overlayed with 4 ml Mueller-Hinton soft agar containing 100 μl suspension of the test strain.
(§4) After the soft agar turned solid, sterile susceptibility test discs were circular placed on the agar and on every test disc 10 μl compound was added. Each concentration is tested in triplicate. The agar dishes were incubated for 18 hours at a temperature of 30° C. or 37° C. Results are obtained by measuring the diameter of inhibition area around each test disc.

[2] = test system: Mycobacterium phlei DSM750; assay: as above; conditions: concentration 1 mg/ml; 10 μl per test disc; "—" no activity detected
Description: as §1, §2
Mycobacterium phlei DSM750 [gram. Pos.] Medium: MHB/30° C.
as §3, §4

[3] = test system: Micrococcus luteus DSM1790; assay: as above; conditions: 10 μl per test disc, "—" no activity detected
Description: as §1, §2
Micrococcus luteus DSM1790 [gram. Pos.] Medium: MHB/37° C.
as §3, §4

Bacillus subtilis DSM10 = assay: as above; conditions: 10 μl per test disc, "—" no activity detected
Description: as §1, §2
Bacillus subtilis DSM10 [gram. Pos.] Medium: MHB/30° C.
as §3, §4

Bacillus megaterium = assay: as above; conditions: 10 μl per test disc, "—" no activity detected
Description: as §1, §2
Bacillus megaterium [gram. Pos.] Medium: MHB/30° C.
as §3, §4

[4] = test system: test strains of the agar plate tests; assay: Test agar plates, control substance in the same tests (strains not named individually); conditions: active substance 1 mg/ml
Description: as §1, §2, §3, §4
Test Agar Plates (Active Substance 1 mg/ml) Control Substance: […]

[5] = test system: Escherichia coli strains expressing albicidin resistance determinants (DH5aAlbr, albD, alb14, alb19, sbmC); assay: Microbiological assay (Zhang et al.) for cross-resistance; conditions: synthetic versus natural albicidin, FIG. 11
From the text: The microbiological assay described by Zhang et al., (J Appl Microbiol., 1998, 85, 1023-8) was used to study cross-resistance between synthetic albicidin (10) and the natural product albicidin purified from albicidin heterologous host developed by Vivien et al. (Antimicrob Agents Chemother., 2007, 51, 1549-52). Several Escherichia coli strains expressing a wide range of albicidin resistance determinants were used for this microbiological bioassay: strain DH5aAlbr (a spontaneous albicidin-resistant DH5a derivative; Rott et al., (J. Bacteriol., 1996, 178, 4590-4596.) and strains harboring albD (an albicidin-detoxifying gene, Zhang and Birch (Proc. Natl. Acad. Sci. USA, 1997, 94, 9984-9989.), alb14 (an albicidin efflux pump gene conferring albicidin resistance in E. coli, Bostock et al., (J. Appl. Microbiol., 2006, 101, 151-160.), alb19 (a McbG gene conferring albicidin resistance in E. coli, Hashimi et al. (Antimicrob. Agents Chemother., 2007, 51, 181-187.), or sbmC (a microcin B17 resistance gene, Baquero et al. (Mol. Microbiol., 1995, 18, 301-311.).

What does the source list for `COc1c(NC(=O)c2ccc(NC(=O)c3ccc(NC(=O)[C@H](CC#N)NC(=O)c4ccc(NC(=O)/C(C)=C/c5ccc(O)cc5)cc4)cc3)c(OC)c2O)ccc(C(=O)O)c1O` [A, beta-Albicidin]?
Antibacterial activity, diameter of inhibition area, Escherichia coli K12 (W1130) ([1]; concentration 0.1 mg/ml): 1.9; Antibacterial activity, diameter of inhibition area, Escherichia coli K12 (W1130) ([1]; concentration 1 mg/ml): 2.6; Antibacterial activity, diameter of inhibition area, Mycobacterium phlei DSM 750 [2]: 1.5; Antibacterial activity, diameter of inhibition area, Micrococcus luteus ([3]; concentration 0.1 mg/ml): 2.0; Antibacterial activity, diameter of inhibition area, Micrococcus luteus ([3]; concentration 1 mg/ml): 2.8; Antibacterial activity, diameter of inhibition area, Bacillus subtilis DSM 10 (Bacillus subtilis DSM10; concentration 0.1 mg/ml): 1.4; Antibacterial activity, diameter of inhibition area, Bacillus subtilis DSM 10 (Bacillus subtilis DSM10; concentration 1 mg/ml): 2.8; Antibacterial activity, diameter of inhibition area, Bacillus megaterium (Bacillus megaterium; concentration 0.1 mg/ml): 1.2; Antibacterial activity, diameter of inhibition area, Bacillus megaterium (Bacillus megaterium; concentration 1 mg/ml): 2.0

`CN[C@@H]1[C@@H](O[C@H]2O[C@H](CO)[C@@H](N)[C@H](O)[C@H]2O)OC2C[C@@H](N)[C@@H](O[C@H]3[C@H](O)[C@@H](O)[C@H](N)C[C@@H]3N)OC2[C@@H]1O` (stereo partly shown) [Apramycin, reference compound] was tested. Which “Antibacterial activity, diameter of inhibition area, Escherichia coli K12 (W1130)” value ([1]; concentration 1 mg/ml) did it give?
Its value is 1.7.

And the “Antibacterial activity, diameter of inhibition area, Mycobacterium phlei DSM 750” value [2]?
Its value is 2.2.

And the “Antibacterial activity, diameter of inhibition area, Micrococcus luteus” value ([3]; concentration 1 mg/ml)?
Its value is 1.8.

And the “Antibacterial activity, diameter of inhibition area, Bacillus subtilis DSM 10” value (Bacillus subtilis DSM10; concentration 1 mg/ml)?
The value was 2.0.

And the “Antibacterial activity, diameter of inhibition area, Bacillus megaterium” value (Bacillus megaterium; concentration 1 mg/ml)?
Its value is 3.5.

With `COc1c(NC(=O)c2ccc(NC(=O)c3ccc(NC(=O)[C@H](CC#N)NC(=O)c4ccc(NC(=O)/C(C)=C/c5ccc(O)cc5)cc4)cc3)c(OC)c2O)ccc(C(=O)O)c1O` [Natural albicidin, Albicidin] as the molecule, how does the “diameter of inhibition, control substance in the same tests” value [4] read?
The value was “more than 1 cm”.

With `COc1c(NC(=O)c2ccc(NC(=O)c3ccc(NC(=O)[C@H](CC#N)NC(=O)c4ccc(NC(=O)/C(C)=C/c5ccc(O)cc5)cc4)cc3)c(OC)c2O)ccc(C(=O)O)c1O` [synthetic albicidin (10), (S,E)-4-(4-(4-(3-cyano-2-(4-(3-(4-hydroxyphenyl)-2-methylacrylamido)benzamido)propanamido)benzamido)-2-hydroxy-3-methoxybenzamido)-2-hydroxy-3-methoxybenzoic acid] as the molecule, how does the “resistance pattern (cross-resistance) in albicidin-resistant E. coli strains” value [5] read?
Its value is “exactly the same”.
